Experimental data: patent publication US10098830B2, “Oral care compositions” (BASF SE, priority 2014, dated 2018)
Like-named read-outs stand apart in the source and are kept apart here.

Experiments:
S. mutans (ATCC #25175) = assay: Inhibition of bacterial acid production (Bromo Cresol Purple broth, OD 588 / OD 427); type: cell-based, Streptococcus mutans
Procedure: Method to observe the acid production of S. mutans in a medium containing a pH indicator and glucose. Observe how xylitol and the example polymers affect acid production. A culture of S. mutans (ATCC #25175) is grown statically overnight in 10 mL liquid broth (BHI) at 37° C. […] The no treatment control has 20 ul water added. To each experimental well 180 of the inoculated BCP broth is added. To the no inoculum control 20 ul water and 20 ul filter sterilized overnight culture broth are added. […] Both wavelengths are measured every hour for several hours but before evaporation became an issue. The plates are shaken for 10 seconds before reading.

S. mutans 25175 biofilm = assay: Prevention of Streptococcus mutans biofilm development on hydroxy apatite pegs (Bac-titer-Glo); type: cell-based; conditions: 2% xylitol
Procedure: Prevention of Biofilm Development S. mutans Biofilms: S. mutans 25175 is inoculated into 10 mL BHI and incubated statically at 37° C. overnight. […] Hydroxy apatite coated peg lids are pellicle treated with sterile artificial saliva 200 ul/per well of a 96 well clear plate for 30 minutes at 37° C. aerobic. […] Test solutions are added to a desired final concentration and water is added to bring the final volume to 200 ul. […] Polymers are evaluated using the biofilm prevention method indicated above for both S. mutans and multispecies saliva derived biofilm.

[1] = system: multispecies saliva biofilm; assay: Prevention of multispecies saliva biofilm development on hydroxy apatite pegs (Bac-titer-Glo); type: cell-based, pooled human saliva; conditions: 2% xylitol
Procedure: Prevention of Biofilm Development Multispecies Saliva Biofilms: Hydroxy apatite (HA) coated surfaces of a 96 peg lid (Biosurface Technologies, Boseman, Mont.) are pellicle treated with pooled human saliva 200 μl/per well of a 96 well clear plate for 30 minutes at 37° C. aerobically. Into each well of the growth plate, clear 96 well plate, 160 μl inoculated Brain Heart Infusion (BHI) broth is added. Test solutions are added to a desired final concentration and water is added to bring the final volume to 200 μl. The hydroxyl apatite coated pegs are added to. […] Polymers are evaluated using the biofilm prevention method indicated above for both S. mutans and multispecies saliva derived biofilm.

porcine esterase = assay: Enzymatic degradation of xylitol polymer by esterase (pH change); type: in vitro ADME
Procedure: The method for determining enzymatic breakdown of polymer is determined by Sigma Quality Control Test Procedure: Enzymatic Assay of Esterase. This assay however, exchanges Ethyl Butyrate solution with solution of test polymer. pH change is monitored over time as an indicator of esterase activity and polymer degradation.
Degradation of example polymers is conducted using porcine esterase. Esterase activity decreases the pH of the solution. The pH is monitored at the start and end of the assay (90 minutes).

[2] = system: S. mutans (ATCC #25175) biofilm; assay: Substantivity: Streptococcus mutans biofilm growth after 24 hr on pre-treated hydroxyapatite surfaces; type: cell-based; conditions: pre-treated surface
Procedure: Method to evaluate the substantivity of polymers to hydroxyl apatite surfaces and the effects these polymers have on the growth of Streptococcus mutans and Saliva derived biofilms. For S. mutans Biofilms: S. mutans (ATCC #25175) is inoculated into 10 mL BHI and incubated statically at 37° C. overnight. […] Hydroxy apatite coated peg lids are pellicle treated with sterile artificial saliva 200 ul/per well of a 96 well clear plate for 30 minutes at 37° C. aerobic. The peg lids are transferred to a clear 96 well plate containing 200 ul of the designated treatments below in Jordan's with 5% sucrose. […] After 30 mins of treatment the two pegs are transferred to a 96 well plate containing 200 ul of water and it is rinsed for 10 min at 500 rpm. […] After incubation the peg lids are transferred to a rinse plate containing 200 ul of water for 5 minutes and then transferred to white 96 well plate containing 200 ul Bac-titer-Glo, this is shaken for 5 minutes and read for luminescence. Results: Polymers are evaluated using the substantivity for biofilm prevention method indicated above for both S. mutans and multispecies saliva derived biofilms.

[3] = system: multispecies saliva derived biofilm; assay: Substantivity: multispecies saliva derived biofilm growth after 24 hr on pre-treated hydroxyl apatite surfaces; type: cell-based, human saliva; conditions: for % decrease in biofilm as compared to growth control (negative indicates increased biofilm): saliva biofilm, 24 hr, pre-treated surface
Procedure: Method to evaluate the substantivity of polymers to hydroxyl apatite surfaces and the effects these polymers have on the growth of Streptococcus mutans and Saliva derived biofilms. For Multispecies Saliva Biofilms: Hydroxy apatite (HA) coated surfaces are pellicle treated with pooled human saliva 200 ul/per well of a 96 well clear plate for 30 minutes at 37° C. aerobically. […] The peg lids are transferred to a clear 96 well plate containing 200 ul of the designated treatments below in Jordan's with 5% sucrose. […] After 30 mins of treatment the two pegs are transferred to a 96 well plate containing 200 ul of water and it is rinsed for 10 min at 500 rpm. […] After incubation the peg lids are transferred to a rinse plate containing 200 ul of water for 5 minutes and then transferred to white 96 well plate containing 200 ul Bac-titer-Glo, this is shaken for 5 minutes and read for luminescence.

48 hour saliva biofilms = assay: Disruption of established 48 hour saliva biofilms; type: cell-based, pooled human saliva; conditions: for Disruption of 48 hour saliva biofilms after treatment for 5 minutes: Chelate control: 0.1% Trilon Ca
Procedure: Method to screen combinations of actives, example polymers and chelates to identify potential synergies for biofilm disruption.
Polystyrene Pegs are pellicle treated with fresh pooled human saliva for 30 minutes at 37° C. aerobically. Saliva is inoculated into BHI broth at a final concentration of 10% saliva. 200 ul of inoculated or uninoculated media is added to each well. The pegs are added to the growth media and incubated anaerobically 37° C.
At 24 hr. the pegs are removed and transferred to a fresh plate containing 200 ul of sterile BHI. And incubated anaerobically for another 24 hr at 37 C.
After 48 hr of growth time, pegs containing the biofilms are transferred to a 96 well rinse plate containing 200 ul of or BHI. Following a 5 minute rinse at room temperature, the pegs are transferred to a treatment plate containing combinations of actives, chelate and polymers. This is followed a 5 minute treatment (shaking at 500 rpm). The treated pegs are transferred to a white 96 well plate containing 200 ul Bac-titer-Glo reagent—this is incubated at room temperature for 5 minutes (shaking) and read on a plate reader for luminescence.
Polymers are evaluated using the Biofilm disruption model as described above.
Example polymers (xylitol-EDTA polymer and xylitol-arginine-succinic acid polymer) are combined with example actives (epsilon-polylysine and chlorhexidine) and a chelator (Ca EDTA).

**Q.** For `OC[C@@H](O)[C@H](O)[C@@H](O)CO` [Xylitol], which “effect on acid production of S. mutans (change of OD 588 / OD 427, pH), in words” value (S. mutans (ATCC #25175)) is on record?
**A.** acid inhibition at all concentrations tested

**Q.** What about the “percent reduction from the untreated control” value (S. mutans 25175 biofilm) of the same molecule?
**A.** −1%

**Q.** And the “percent reduction from the untreated control” value [1]?
**A.** 17%

**Q.** Which “End pH” value (porcine esterase; 0.2% (positive control), porcine esterase, end of the assay (90 minutes)) does the source give for `CCOC(C)=O` [Ethyl Acetate] here?
**A.** 5.00

**Q.** And the “Start pH” value (porcine esterase; 0.2% (positive control), porcine esterase, start of assay)?
**A.** 8.30

**Q.** Which results are given for `O=C(O)CN(CCN(CC(=O)O)CC(=O)O)CC(=O)O` [EDTA, ethylenediaminetetraacetic acid]?
**A.** % decrease in biofilm as compared to growth control (negative indicates increased biofilm) ([2]; % treatment 0.083%): 13%; % decrease in biofilm as compared to growth control (negative indicates increased biofilm) ([2]; % treatment 0.165%): 37%; % decrease in biofilm as compared to growth control (negative indicates increased biofilm) ([2]; % treatment 0.330%): 44%; % decrease in biofilm as compared to growth control (negative indicates increased biofilm) ([2]; % treatment 0.660%): 46%; % decrease in biofilm as compared to growth control (negative indicates increased biofilm) ([2]; % treatment 1.320%): 41%; effect on acid production of S. mutans (change of OD 588 / OD 427, pH), in words (S. mutans (ATCC #25175)): no or little change; substantivity (retention of biofilm prevention activity after rinsing), in words ([3]; observations consistent for both S. mutans and saliva biofilms): also substantive; % decrease in biofilm as compared to growth control (negative indicates increased biofilm) ([3]; % treatment 0.083%): 17%; % decrease in biofilm as compared to growth control (negative indicates increased biofilm) ([3]; % treatment 0.165%): 25%; % decrease in biofilm as compared to growth control (negative indicates increased biofilm) ([3]; % treatment 0.330%): 32%; % decrease in biofilm as compared to growth control (negative indicates increased biofilm) ([3]; % treatment 0.660%): 60%; % decrease in biofilm as compared to growth control (negative indicates increased biofilm) ([3]; % treatment 1.320%): 79%

**Q.** For `O=C(O)CCC(=O)O` [succinic acid], which “effect on acid production of S. mutans (change of OD 588 / OD 427, pH), in words” value (S. mutans (ATCC #25175)) is on record?
**A.** no or little change

**Q.** Which results are given for `N=C(N)NCCC[C@H](N)C(=O)O` [L-Arginine]?
**A.** % decrease in biofilm as compared to growth control (negative indicates increased biofilm) ([2]; % treatment 0.070%): −40%; % decrease in biofilm as compared to growth control (negative indicates increased biofilm) ([2]; % treatment 0.140%): −18%; % decrease in biofilm as compared to growth control (negative indicates increased biofilm) ([2]; % treatment 0.280%): −59%; % decrease in biofilm as compared to growth control (negative indicates increased biofilm) ([2]; % treatment 0.560%): −53%; % decrease in biofilm as compared to growth control (negative indicates increased biofilm) ([2]; % treatment 1.120%): −29%; effect on acid production of S. mutans (change of OD 588 / OD 427, pH), in words (S. mutans (ATCC #25175)): no acid inhibiting effects; % decrease in biofilm as compared to growth control (negative indicates increased biofilm) ([3]; % treatment 0.070%): −28%; % decrease in biofilm as compared to growth control (negative indicates increased biofilm) ([3]; % treatment 0.140%): −20%; % decrease in biofilm as compared to growth control (negative indicates increased biofilm) ([3]; % treatment 0.280%): −24%; % decrease in biofilm as compared to growth control (negative indicates increased biofilm) ([3]; % treatment 0.560%): −22%; % decrease in biofilm as compared to growth control (negative indicates increased biofilm) ([3]; % treatment 1.120%): 49%

**Q.** Which results are given for `O=C([O-])CN(CCN(CC(=O)[O-])CC(=O)[O-])CC(=O)[O-].[Ca+2].[Na+].[Na+]` [Trilon Ca]?
**A.** Disruption of 48 hour saliva biofilms after treatment for 5 minutes: Chelate control (48 hour saliva biofilms; Chlorhexidine / Xylitol-EDTA polymer series): −1; Disruption of 48 hour saliva biofilms after treatment for 5 minutes: Chelate control (48 hour saliva biofilms; e-polylysine / Arginine-Xylitol-Succinic Acid Terpolymer series): −10

**Q.** For `O=C(O)CC(O)(CC(=O)O)C(=O)O` [citric acid], which “effect on acid production of S. mutans (change of OD 588 / OD 427, pH), in words” value (S. mutans (ATCC #25175)) is on record?
**A.** no or little change

**Q.** `[H]/N=C(\N/C(=N/[H])NCCCCCCNC(=N)NC(=N)Nc1ccc(Cl)cc1)Nc1ccc(Cl)cc1` [Chlorhexidine, chlorhexidine] was tested. Which “Disruption of 48 hour saliva biofilms after treatment for 5 minutes: Active control” value (48 hour saliva biofilms; 0.06% Chlorhexidine) did it give?
**A.** −10^

**Q.** `CCCCCCCCCCCCCCCC[n+]1ccccc1` [Cetylpyridinium chloride] was tested. Which “% decrease in biofilm as compared to growth control (negative indicates increased biofilm)” value ([2]; % treatment 0.070%) did it give?
**A.** 100%

**Q.** And the “% decrease in biofilm as compared to growth control (negative indicates increased biofilm)” value ([3]; % treatment 0.070%)?
**A.** 98%

**Q.** Which results are given for Xylitol-Carboxymethyl Cellulose Polymer?
**A.** End pH (porcine esterase): 7.47; Start pH (porcine esterase): 8.37; degradation by esterase, in words (porcine esterase): degraded by the esterase
